# Results as given in US10251402B2, “Methods and compositions for controlling leaf-cutting ant populations” (ISCA Technologies, Inc., priority 2015, dated 2019).
# Where two headings read alike, the source gives them in different places.
# Tests used:
# [1] = tested on: Leucoagaricus gongylophorus; assay: Fungistatic inhibition: fungal inoculations exposed to wells containing botanical oils, mycelial growth toward the well vs unexposed controls; format: cell-based; details: 21 days exposure to well containing oil; mycelial growth toward well vs unexposed control
# [2] = tested on: Leucoagaricus gongylophorus; details: for Growth Evaluation: 30-day incubation, median of five replicates
# Method: A similar lab trial was designed and performed to evaluate the fungicidal capacities of these botanical oils in addition to their fungistatic properties against L. gongylophorus. For this test, the plant oils were incorporated directly into the fungal growth medium at different concentrations (0.1, 1, and 5%). The growth of the fungus on this medium was evaluated after a 30-day incubation period, based on the quantity and density of the mycelium, according to the following pattern. Growth was characterized by the following measure: 5+ indicated growth identical to the control treatment (medium alone, with no plant oil treatment), or 100% growth; 4+ indicated growth equivalent to 80% of the control treatment growth; 3+ indicated 60%; 2+ indicated 40%; 1+ indicated 20%; and 0 indicated total elimination of the fungal colony.
smiles,measurement,setting,value
COC(=O)c1ccccc1O [Methyl Salicylate],Inhibition (%) of fungal growth (fungistatic),[1],100%
same,fungal mortality,[2],100%
same,Growth Evaluation,[2]; concentration 0.1% in medium,3+ (3+ indicated 60%)
same,Growth Evaluation,[2]; concentration 1% in medium,0
same,Growth Evaluation,[2]; concentration 5% in medium,0
